{"source": "patent US20240091227A1", "about": "“Use Of 2-Phenyl-6-(1H-Imidazol-1-YL) Quinazoline For Treating Neurodegenerative Diseases, Preferably Alzheimer's Disease” (ROTTAPHARM BIOTECH S.R.L., priority 2019, published 2024)", "system": "PKCε", "assay": "PKCε translocation to the plasma membrane in cultured dorsal root ganglia neurons", "type": "cell-based, rat", "settings": "idazoxan pre-applied 10 minutes at 10 and 100 μM, toward 1 μM CR4056", "description": "FIG. 1 reports the time-course (A) and washout (B) of CR4056 effect on PKCF translocation induced by bradykinin (BK 1 μM). In Panel A, open symbols represent the percentage of neurons positive for PKCF translocation following BK stimulation in absence of the drug. Filled symbols represent neurons pre-incubated with CR4056 ([…]) for different times before the stimulation for 30 seconds with BK+CR4056. The first filled symbol indicates the effect of CR4056 co-incubated for 30 seconds with BK, the second filled symbol indicates 10 seconds of pre-incubation of CR4056, and the last indicates 24 hours of pre-incubation of CR4056. […] In Panel B, BK-induced PKCF translocation was evaluated before (open symbol) and after pre-incubation of CR4056 ([…]) at different time intervals (from 10 minutes to 8 hours) (filled symbols). The first datapoint was obtained at the end of the 10 minute pre-incubation, when CR4056 was still present. The subsequent datapoints were obtained after extensive rinsing to ensure complete removal of the drug from extracellular solution (n=3).\nRat dorsal root ganglia (DRGs) were obtained from freshly isolated spines after carefully removing nerve trunks and connective tissue. Larger ganglia, chopped into 2-4 smaller pieces were then incubated for 1 hour at 37° C. in 0.125% collagenase (Worthington, Freehold, NJ) dissolved in Dulbecco's modified Eagle's medium (DMEM) containing 10% fetal bovine serum (FBS) plus 1% penicillin/streptomycin and 1% L-glutamine (Euroclone, Milan, Italy). After enzymatic digestion, ganglia were mechanically dissociated and neurons plated at a density such that neurons would cover about 30% of coverslip surface in a single layer, in petri dishes containing wells with a glass bottom coverslip (pre-coated with 10 μg/mL poly-L-lysine and 20 µg/ml laminin, Sigma-Aldrich, Milan, Italy). Cells were incubated for 2-3 days in DMEM as described above, plus 1.5 μg/ml cytosine 1-d-arabinofuranoside (ARA-C, Sigma-Aldrich) to slow down proliferation of non neuronal cells, and 100 ng/ml nerve growth factor (NGF, Sigma-Aldrich) to increase cell health and the and the expression of receptors which are linked to PKCF translocation upon stimulation. Activation of membrane receptors coupled to phospholipase C pathway leads to PKCF translocation from cytoplasm to the plasma membrane. In order to study PKCε behaviour a well established technique was employed (Vellani V, Neuroscience, 2006). […] CR4056 was pre-applied in the culture medium for 10 min or co-applied with the stimulus. After fixation, cells were permeabilized with 0.2% Triton X-100 (Sigma-Aldrich, Milan, Italy) and exposed overnight to a rabbit polyclonal antibody highly specific for PKCF. After extensive rinsing, PKCF was visualized with a secondary antibody (1:200 dilution Alexa Fluor 488 goat anti-rabbit, Thermo Fisher Scientific, Monza, Italy) applied for 2-4 hours at room temperature in the dark Cells showing PKCF translocation were detected with a confocal microscope (Leica SP2, Leica, Switzerland) by measuring fluorescence intensity along a line drawn through the cytoplasm and the membrane, thus avoiding the nucleus. Neurons in which fluorescence intensity at the plasma membrane throughout the cell was 1.5-fold or higher than the mean cytoplasmic intensity were considered positive."}
{"smiles": "c1ccc2c(c1)OCC(C1=NCCN1)O2", "note": "(stereo not shown) [Idazoxan, idazoxan, reference compound]", "values": [{"measurement": "Effect of idazoxan on the block of PKCF translocation by CR4056", "value": "completely ineffective"}]}
